Broadly, the EC50 is the concentration giving half of the maximal effect. By IC50 is commonly meant the concentration needed to halve the response being measured.

Where two headings read alike, the source gives them in different places.

The test system of one experiment is SMN2 promoter. Kind of experiment: SMN2 promoter assay in NSC-34 cells (β-lactamase reporter). The experiment is classed as cell-based, mouse. To be noted: read-out: Promoter Assay EC50. A digest of the protocol:
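Compounds were tested for SMN2 promoter activation in NSC-34 cells, a mouse spinal cord–neuroblastoma hybrid line. The cells carry a plasmid in which a 3.4 kb SMN2 promoter fragment drives β-lactamase expression. CCF2-AM enters the cells and is converted by cytoplasmic esterase into an active β-lactamase substrate. Fold induction relative to vehicle (DMSO) control reflects the amount of β-lactamase made and therefore promoter activation.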

Experiment [1] concerns the target T1, Human, recombinant dihydrofolate reductase (Homo sapiens, UniProt P00374).
T1 construct: purchased Sigma D6566
T1 sequence (P00374 1-187): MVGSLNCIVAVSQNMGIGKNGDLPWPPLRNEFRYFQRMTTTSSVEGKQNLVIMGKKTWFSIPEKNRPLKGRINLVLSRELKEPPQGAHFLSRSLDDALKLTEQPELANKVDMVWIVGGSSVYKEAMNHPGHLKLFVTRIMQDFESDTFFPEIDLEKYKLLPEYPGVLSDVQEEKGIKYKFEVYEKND
Nature of the experiment: Human DHFR assay. It counts as biochemical. The protocol:
The assay is an adaptation for 96-well plate format from Appleman et al. (Appleman, J R; Howell, E E; Kraut, J; Kuhl, M and Blakley, R L (1988) J. Biol. Chem. 263, 9187-9198). Human, recombinant dihydrofolate reductase (Sigma, D6566) was incubated along with test compounds ([…]) and NADPH (Sigma, N-7505) in 96-well plates. After a 10 min. pre-incubation at room temperature, dihydrofolic acid (Sigma, D7006) was added and the kinetic traces at 340 nm measured on a Spectra Max 190 plate reader at room temperature. Reaction rates were determined from the slopes of the linear portions of the progress curves. The final assay conditions were 0.014 units DHFR, 300 μM NADPH, 30 μM Dihydrofolic acid, 50 mM TRIS, pH 7.6, 100 mM NaCl and 1.25% DMSO. Each compound was measured in duplicates on every assay plate. Each assay plate contained 12 positive controls (DMSO only) and 12 negative controls (no dihydrofolic acid). All data was percent normalized with respect to controls and presented as percent inhibition. Inhibition data was analyzed using Prism and fit to a standard 4-parameter logistic equation to calculate IC50 values.

The test system of a further experiment is SMN2 gene. Particulars: cultured cells taken from patients with SMA type I; cited from earlier work.
Setting [2] is: Mus musculus, Table 1, SMN2 promoter driving β-lactamase, 12 point dose curve.
Setting [3] is: Mus musculus, Table 2, SMN2 promoter driving β-lactamase.
Where [4] appears, read: Table 3, SMN2 promoter driving β-lactamase.
Where [5] appears, read: Mus musculus, Table 3, SMN2 promoter driving β-lactamase.
Where [6] appears, read: Mus musculus, Table 5, SMN2 promoter driving β-lactamase.

With `Nc1nc(N)c2c(OCC3CCN(Cc4c(Cl)cccc4Cl)CC3)cccc2n1` [Example-142], in the experiment with SMN2 promoter (setting [2]), the 50% effective concentration (EC50) is under 1 µM. For the same compound, the concentration for half-maximal inhibition (IC50) in experiment [1] (Table 1, read-out: hDHFR IC50) is over 100 µM. On to `Nc1nc(N)c2c(OCC3CCN(Cc4cc(F)ccc4F)CC3)cccc2n1` [Example-143], for which the EC50 with SMN2 promoter (setting [2]) was under 1 µM. Besides, the IC50 in experiment [1] (Table 1, read-out: hDHFR IC50) fell in the range of 20 to 100 µM. In the same order, the values of `CCCCCCN1CCC(COc2cccc3nc(N)nc(N)c23)CC1` [Example-144] are under 1 µM and over 100 µM. The like results for `Nc1nc(N)c2c(OCC3CCN(Cc4c(F)cccc4F)CC3)cccc2n1` [Example-147] were, in that order, under 1 µM and over 100 µM. In the same order, the values of `Nc1nc(N)c2c(OCC3CCN(CC4CCNCC4)CC3)cccc2n1` [Example-151] are under 1 µM and over 100 µM. For the compound `Nc1nc(N)c2c(OC[C@H]3CC[C@H](Cc4cccc(Cl)c4)CC3)cccc2n1` [Example-153, 5-[4-(3-Chlorobenzyl)cyclohexylmethoxy]quinazoline-2,4-diamine], the EC50 in the experiment with SMN2 promoter (setting [3]) is under 1 µM. In experiment [1] (Table 2, read-out: hDHFR IC50), the 50% inhibitory concentration (IC50) is under 20 µM.

As to `Nc1nc(N)c2c(OCC3CCC(Cc4ccccc4F)CC3)cccc2n1` (centres unmarked) [Example-154, 5-[4-(2-Fluorobenzyl)cyclohexylmethoxy]quinazoline-2,4-diamine], the concentration for a half-maximal effect (EC50) in the experiment on SMN2 promoter (setting [3]) was under 1 µM. In experiment [1] (Table 2, read-out: hDHFR IC50), the half-inhibitory concentration (IC50) was in the range of 20 to 100 µM. Take `Cc1cccc(C)c1CN1CCC(COc2cccc3nc(N)nc(N)c23)CC1` [Example-158]: the EC50 with SMN2 promoter (setting [4]) was under 1 µM. The IC50 in experiment [1] (Table 3, read-out: hDHFR IC50) was over 100 µM. The like results for `Nc1nc(N)c2c(OCC3CCN(CC(F)F)CC3)cccc2n1` [Example-159] were, in that order, under 1 µM and over 100 µM.

In the case of `Nc1nc(N)c2c(OCC3CCN(Cc4c(F)cccc4C(F)(F)F)CC3)cccc2n1` [Example-160, 5-[1-(2-Fluoro-6-trifluoromethylbenzyl)piperidin-4-ylmethoxy]quinazoline-2,4-diamine], the EC50 in the experiment with SMN2 promoter (setting [5]) was under 1 µM. Further, the IC50 in experiment [1] (Table 3, read-out: hDHFR IC50) was over 100 µM. The like results for `Nc1nc(N)c2c(OCC3CCN(Cc4c(F)cccc4Cl)CC3)cccc2n1` [Example-161, 5-[1-(2-Chloro-6-fluorobenzyl)piperidin-4-ylmethoxy]quinazoline-2,4-diamine] were, in that order, under 1 µM and over 100 µM. `Nc1nc(N)c2c(OC[C@H]3CC[C@H](Cc4ccccc4Cl)CC3)cccc2n1` [Example-164, 5-[4-(2-Chlorobenzyl)cyclohexylmethoxy]quinazoline-2,4-diamine]: the EC50 in the experiment with SMN2 promoter (setting [3]) is under 1 µM. Moreover, the half-maximal inhibitory concentration (IC50) in experiment [1] (Table 2, read-out: hDHFR IC50) was over 100 µM. Turning to `Nc1nc(N)c2c(OCC3CCN(CC(F)(F)F)CC3)cccc2n1` [Example-165], the EC50 in the experiment with SMN2 promoter (setting [4]) is under 1 µM. Moreover, the concentration for half-maximal inhibition (IC50) in experiment [1] (Table 3, read-out: hDHFR IC50) is over 100 µM. Take `COc1ccccc1CC1CCC(COc2cccc3nc(N)nc(N)c23)CC1` (centres unmarked) [Example-168, 5-[4-(2-Methoxybenzyl)-cyclohexylmethoxy]quinazoline-2,4-diamine]: the concentration giving a half-maximal response (EC50) in the experiment with SMN2 promoter (setting [3]) was under 1 µM. Also, in experiment [1] (Table 2, read-out: hDHFR IC50), the half-inhibitory concentration (IC50) was under 20 µM. With `Nc1nc(N)c2c(OCCN3CCN(S(=O)(=O)c4ccccc4F)CC3)cccc2n1` [Example-206, 5-{2-[4-(2-Fluoro-benzenesulfonyl)-piperazin-1-yl]-ethoxy}-quinazoline-2,4-diamine], in the experiment with SMN2 promoter (setting [6]), the 50% effective concentration (EC50) is under 1 µM. Besides, in experiment [1] (Table 5, read-out: hDHFR IC50), the half-maximal inhibitory concentration (IC50) is under 20 µM. As to `Nc1nc(N)c2c(OCCN3CCN(C(=O)c4ccc(F)cc4F)CC3)cccc2n1` [Example-207, {4-[2-(2,4-Diamino-quinazolin-5-yloxy)-ethyl]-piperazin-1-yl}-(2,4-difluoro-phenyl)-methanone], the EC50 in the experiment with SMN2 promoter (setting [6]) was under 1 µM. The IC50 in experiment [1] (Table 5, read-out: hDHFR IC50) lay in the range of 20 to 100 µM. The like results for `Nc1nc(N)c2c(OCCN3CCN(C(=O)c4ccc5c(c4)OCO5)CC3)cccc2n1` [Example-208, Benzo[1,3]dioxol-5-yl-{4-[2-(2,4-diamino-quinazolin-5-yloxy)-ethyl]-piperazin-1-yl}-methanone] were, in that order, under 1 µM and under 20 µM. As for `Nc1nc(N)c2c(OCCN3CCN(S(=O)(=O)c4ccccc4)CC3)cccc2n1` [Example-209, 5-[2-(4-Benzenesulfonyl-piperazin-1-yl)-ethoxy]-quinazoline-2,4-diamine], the EC50 with SMN2 promoter (setting [6]) is under 1 µM. For the same compound, in experiment [1] (Table 5, read-out: hDHFR IC50), the half-maximal inhibitory concentration (IC50) is under 20 µM.

In the case of `Nc1nc(N)c2c(OCCN3CCN(S(=O)(=O)c4ccc(F)cc4F)CC3)cccc2n1` [Example-210, 5-{2-[4-(2,4-Difluoro-benzenesulfonyl)-piperazin-1-yl]-ethoxy}-quinazoline-2,4-diamine], the EC50 in the experiment on SMN2 promoter (setting [6]) was under 1 µM. The IC50 in experiment [1] (Table 5, read-out: hDHFR IC50) is under 20 µM. Consider `Nc1nc(N)c2c(OCCN3CCN(S(=O)(=O)c4ccc(Cl)c(Cl)c4)CC3)cccc2n1` [Example-211, 5-{2-[4-(3,4-Dichloro-benzenesulfonyl)-piperazin-1-yl]-ethoxy}-quinazoline-2,4-diamine], for which, in the experiment on SMN2 promoter (setting [6]), the EC50 was under 1 µM. Also, the half-maximal inhibitory concentration (IC50) in experiment [1] (Table 5, read-out: hDHFR IC50) was under 20 µM. As to `Nc1nc(N)c2c(OCCN3CCN(C(=O)c4ccc(Cl)c(Cl)c4)CC3)cccc2n1` [Example-212, {4-[2-(2,4-Diamino-quinazolin-5-yloxy)-ethyl]-piperazin-1-yl}-(3,4-dichloro-phenyl)-methanone], the EC50 with SMN2 promoter (setting [6]) was under 1 µM. The half-maximal inhibitory concentration (IC50) in experiment [1] (Table 5, read-out: hDHFR IC50) is under 20 µM. The like results for `Nc1nc(N)c2c(OCCN3CCN(C(=O)c4ccccc4)CC3)cccc2n1` [Example-213, {4-[2-(2,4-Diamino-quinazolin-5-yloxy)-ethyl]-piperazin-1-yl}-phenyl-methanone] were, in that order, under 1 µM and under 20 µM. `Nc1nc(N)c2c(OCCN3CCN(C(=O)c4ccc(Cl)cc4)CC3)cccc2n1` [Example-214, (4-Chloro-phenyl)-{4-[2-(2,4-diamino-quinazolin-5-yloxy)-ethyl]-piperazin-1-yl}-methanone]: in the experiment with SMN2 promoter (Table 5, SMN2 promoter driving β-lactamase), the EC50 is under 1 µM. The half-inhibitory concentration (IC50) in experiment [1] (Table 5, read-out: hDHFR IC50) was under 20 µM. As for `Nc1nc(N)c2c(OCCN3CCN(C(=O)c4ccccc4F)CC3)cccc2n1` [Example-215, {4-[2-(2,4-Diamino-quinazolin-5-yloxy)-ethyl]-piperazin-1-yl}-(2-fluoro-phenyl)-methanone], the EC50 in the experiment on SMN2 promoter (setting [6]) is under 1 µM. Besides, in experiment [1] (Table 5, read-out: hDHFR IC50), the IC50 is under 20 µM.

Turning to `Nc1nc(N)c2c(OCCN3CCN(Cc4ccccc4F)CC3)cccc2n1` [Example-216, 5-{2-[4-(2-Fluoro-benzyl)-piperazin-1-yl]-ethoxy}-quinazoline-2,4-diamine], in the experiment on SMN2 promoter (setting [6]), the EC50 was under 1 µM. For the same compound, the IC50 in experiment [1] (Table 5, read-out: hDHFR IC50) was 20 to 100 µM. With `Nc1nc(N)c2c(OCCN3CCN(Cc4ccc(F)cc4F)CC3)cccc2n1` [Example-217, 5-{2-[4-(2,4-Difluoro-benzyl)-piperazin-1-yl]-ethoxy}-quinazoline-2,4-diamine], the EC50 in the experiment with SMN2 promoter (setting [6]) was under 1 µM. The half-inhibitory concentration (IC50) in experiment [1] (Table 5, read-out: hDHFR IC50) fell in the range of 20 to 100 µM. `CCCC(CCC)C(=O)O` [valproic acid]: the “increase in production of functional SMN protein” value in the experiment on SMN2 gene is 30 to 50%.
